Source: ChEMBL document CHEMBL5316297, “Mechanistic Insight of Synthesized 1,4-Dihydropyridines as an Antidiabetic Sword against Reactive Oxygen Species” (J Med Chem, 2023)

Legend:
[1] = Cytotoxicity against human THLE-2 cells assessed as cell growth inhibition; type: toxicity, cell-based
[2] = Cytotoxicity against HEK293 cells assessed as cell growth inhibition at 10 uM relative to control; type: toxicity, cell-based; details: human, read-out: GI
[3] = Cytotoxicity against human ECT1/E6E7 cells assessed as cell growth inhibition at 10 uM relative to control; type: toxicity, cell-based; details: read-out: GI
[4] = Cytotoxicity against human HCN-1A cells assessed as cell growth inhibition; type: toxicity, cell-based
[5] = Cytotoxicity against human MCF-10F cells assessed as cell growth inhibition; type: toxicity, cell-based
[6] = Cytotoxicity against human MRC5 cells assessed as cell growth inhibition at 10 uM relative to control; type: toxicity, cell-based; details: read-out: GI
[7] = Cytotoxicity against human MRC5 cells assessed as cell growth inhibition; type: toxicity, cell-based
[8] = Cytotoxicity against human ECT1/E6E7 cells assessed as cell growth inhibition; type: toxicity, cell-based
[9] = Cytotoxicity against human MCF-10F cells assessed as cell growth inhibition at 10 uM relative to control; type: toxicity, cell-based; details: read-out: GI
[10] = Cytotoxicity against human BJ cells assessed as cell growth inhibition at 10 uM relative to control; type: toxicity, cell-based; details: read-out: GI
[11] = Cytotoxicity against human WPE1-NA22 cells assessed as cell growth inhibition; type: toxicity, cell-based
[12] = Cytotoxicity against human BJ cells assessed as cell growth inhibition; type: toxicity, cell-based
[13] = Cytotoxicity against HEK293 cells assessed as cell growth inhibition; type: toxicity, cell-based; details: human
[14] = Cytotoxicity against human THLE-2 cells assessed as cell growth inhibition at 10 uM relative to control; type: toxicity, cell-based; details: read-out: GI
[15] = Cytotoxicity against human HCN-1A cells assessed as cell growth inhibition at 10 uM relative to control; type: toxicity, cell-based; details: read-out: GI
[16] = Cytotoxicity against human WPE1-NA22 cells assessed as cell growth inhibition at 10 uM relative to control; type: toxicity, cell-based; details: read-out: GI
[17] = tested on: voltage dependent L/T-type calcium channel; test: Inhibition of voltage dependent L/T-type calcium channel in human SH-SY5Y cells; details: sh-sy5y
INS1 [18] = test: Induction of apoptosis in rat INS1 cells assessed as total apoptotic cells at 1 uM incubated for 36 hrs by Annexin V-FITC/ propidium iodide staining based flow cytometry analysis (reference value: 0.53%); type: functional
Mus musculus [19] = test: Antioxidant activity against high fat diet-STZ-induced diabetic Swiss albino mouse model assessed as serum MDA level at 0.2 mmol/Kg/day, po administered for 14 days (reference value: 8.70+/- 0.09 nmol/ml); type: functional; details: time 14 day
[20] = Toxicity in high fat diet-STZ-induced diabetic Swiss albino mouse model assessed as changes in body weight at 0.2 mmol/Kg/day, po administered for 14 days (reference value: 26.6 to 27.8 g); type: organism-based; details: in vivo, 336 h, time 14 day
Mus musculus [21] = test: Antioxidant activity against high fat diet-STZ-induced diabetic Swiss albino mouse model assessed as serum catalase level at 0.2 mmol/Kg/day, po administered for 14 days (reference value: 378.22+/- 14.45 U/ml); type: functional; details: time 14 day
INS1 [22] = test: Induction of apoptosis in rat INS1 cells assessed as necrotic cells at 1 uM incubated for 36 hrs by Annexin V-FITC/ propidium iodide staining based flow cytometry analysis (reference value: 1.15%); type: functional
Mus musculus [23] = test: Antidiabetic activity against high fat diet-STZ-induced diabetic Swiss albino mouse model assessed as reduction in blood glucose level at 0.2 mmol/Kg/day, po administered for 14 days relative to control; type: functional; parameters: scale not given: the % may be the effect or the level left; details: time 14 day
Mus musculus [24] = test: Antidiabetic activity against high fat diet-STZ-induced diabetic Swiss albino mouse model assessed as insulin resistance by measuring serum IL6 level at 0.2 mmol/Kg/day, po administered for 14 days by ELISA method (reference value: 39.30+/-4.14 pg/ml); type: functional; details: time 14 day
Mus musculus [25] = test: Antioxidant activity against high fat diet-STZ-induced diabetic Swiss albino mouse model assessed as serum SOD level at 0.2 mmol/Kg/day, po administered for 14 days (reference value: 273.01+/- 6.23 U/ml); type: functional; details: time 14 day
INS1 [26] = test: Induction of apoptosis in rat INS1 cells assessed as late apoptotic cells at 1 uM incubated for 36 hrs by Annexin V-FITC/ propidium iodide staining based flow cytometry analysis (reference value: 0.19%); type: functional
Mus musculus [27] = test: Antidiabetic activity against high fat diet-STZ-induced diabetic Swiss albino mouse model assessed as reduction in blood glucose level at 0.2 mmol/Kg/day, po administered for 14 days; type: functional; details: time 14 day
Mus musculus [28] = test: Antidiabetic activity against high fat diet-STZ-induced diabetic Swiss albino mouse model assessed as serum insulin level at 0.2 mmol/Kg/day, po administered for 14 days by ELISA method (reference value: 16.37 +/- 0.62 uU/ml); type: functional; details: time 14 day
Mus musculus [29] = test: Antidiabetic activity against high fat diet-STZ-induced diabetic Swiss albino mouse model assessed as insulin resistance by measuring serum TNFalpha level at 0.2 mmol/Kg/day, po administered for 14 days by ELISA method (reference value: 376.50+/-14.50 ng/ml); type: functional; details: time 14 day
INS1 [30] = test: Induction of apoptosis in rat INS1 cells assessed as early apoptotic cells at 1 uM incubated for 36 hrs by Annexin V-FITC/ propidium iodide staining based flow cytometry analysis (reference value: 0.34%); type: functional
Alpha amylase = target: T1, Alpha amylase (Homo sapiens, UniProt P0DUB6); test: Inhibition of alpha amylase (unknown origin) measured after 20 to 25 mins
T1 sequence (P0DUB6 whole entry): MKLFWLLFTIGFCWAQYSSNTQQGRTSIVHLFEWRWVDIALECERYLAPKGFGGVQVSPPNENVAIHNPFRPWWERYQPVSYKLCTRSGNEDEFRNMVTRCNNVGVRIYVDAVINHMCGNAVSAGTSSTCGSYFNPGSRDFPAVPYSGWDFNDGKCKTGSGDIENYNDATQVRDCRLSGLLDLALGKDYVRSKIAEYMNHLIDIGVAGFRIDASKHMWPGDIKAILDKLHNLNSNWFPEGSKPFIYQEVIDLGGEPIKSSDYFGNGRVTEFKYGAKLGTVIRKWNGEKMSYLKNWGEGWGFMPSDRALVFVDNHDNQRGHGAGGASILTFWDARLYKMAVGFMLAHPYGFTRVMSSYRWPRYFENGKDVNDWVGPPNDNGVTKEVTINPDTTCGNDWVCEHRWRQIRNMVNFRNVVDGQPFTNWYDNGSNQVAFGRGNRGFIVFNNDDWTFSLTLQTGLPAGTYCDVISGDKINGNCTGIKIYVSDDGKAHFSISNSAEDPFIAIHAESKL

[31] = Acute toxicity in Swiss albino mouse assessed as effect on motor alterations up to 2000 mg/kg, po administered for 14 days; type: organism-based; details: in vivo, 336 h, time 14 day
Mus musculus [32] = test: Antidiabetic activity against high fat diet-STZ-induced diabetic Swiss albino mouse model assessed as reduction in blood glucose level at 0.2 mmol/Kg/day, po administered for 14 days relative to glimepiride; type: functional; parameters: scale not given: the % may be the effect or the level left; details: time 14 day
[33] = Acute toxicity in Swiss albino mouse assessed as effect on mortality up to 2000 mg/kg, po administered for 14 days; type: organism-based; details: in vivo, 336 h, time 14 day
[34] = Acute toxicity in Swiss albino mouse assessed as toxic symptoms up to 2000 mg/kg, po administered for 14 days; type: organism-based; details: in vivo, 336 h, time 14 day
[35] = Acute toxicity in Swiss albino mouse assessed as effect on behavioural change up to 2000 mg/kg, po administered for 14 days; type: organism-based; details: in vivo, 336 h, time 14 day

Compound | inhibition at 10 µM [2] [%] | inhibition at 10 µM [3] [%] | inhibition at 10 µM [6] [%] | inhibition at 10 µM [9] [%] | inhibition at 10 µM [10] [%] | inhibition at 10 µM [14] [%] | inhibition at 10 µM [15] [%] | inhibition at 10 µM [16] [%] | Activity [20] [g] | Activity (Mus musculus [23]) [%] | Activity (Mus musculus [27]) [mg/dL] | Activity [31] | Activity (Mus musculus [32]) [%] | Activity [33] | Activity [34] | Activity [35] | further results
COc1cccc2c1C(=O)c1c(O)c3c(c(O)c1C2=O)C[C@@](O)(C(=O)CO)C[C@@H]3O[C@H]1C[C@H](N)[C@H](O)[C@H](C)O1 [DOXORUBICIN] | 46 | 33 | 38.4 | 41.6 | 45.8 | 35.6 | 40.9 | 57.1 |  |  |  |  |  |  |  |  | GI50 [1]: 17.1 µM; GI50 [4]: 11.2 µM; GI50 [5]: 14.2 µM; GI50 [7]: 12.5 µM; GI50 [8]: 1.47 µM; GI50 [11]: 11.6 µM; GI50 [12]: 8.91 µM; GI50 [13]: 9.69 µM
COC(=O)C1=C(C)NC(C)=C(C(=O)OC)C1c1ccccc1[N+](=O)[O-] [NIFEDIPINE] |  |  |  |  |  |  |  |  |  |  |  |  |  |  |  |  | IC50 [17]: 21.9 µM
CCC1=C(C)CN(C(=O)NCCc2ccc(S(=O)(=O)NC(=O)N[C@H]3CC[C@H](C)CC3)cc2)C1=O [GLIMEPIRIDE] | 74 | 22 | 24.2 | 27.1 | 35.8 | 28.8 | 41.6 | 27.8 | 30.92 | 33.5 | 198.3 |  |  |  |  |  | Activity (INS1 [18]): 0.76%; Activity (Mus musculus [19]): 14.52 nmol/mL; Activity (Mus musculus [21]): 199.33 U/ml; Activity (INS1 [22]): 2.86%; Activity (Mus musculus [24]): 195.75 pg/mL; Activity (Mus musculus [25]): 202.06 U/ml; Activity (INS1 [26]): 0.27%; Activity (Mus musculus [28]): 11.88 uU/ml; Activity (Mus musculus [29]): 639.5 ng/mL; Activity (INS1 [30]): 0.49%
O=c1c(O)c(-c2ccc(O)c(O)c2)oc2cc(O)cc(O)c12 [QUERCETIN] |  |  |  |  |  |  |  |  |  |  |  |  |  |  |  |  | IC50 (Alpha amylase): 8.21 µM
CCOC(=O)C1=C(C)NC(C)=C(C(=O)OC(C)(C)C)C1c1cccc2c1OCO2 (stereo unspecified) |  |  |  |  |  |  |  |  | 28.6 | 0.25 | 223.65 | Non-Toxic | <1 | Non-Toxic | Non-Toxic | Non-Toxic | Activity (Mus musculus [19]): 20.99 nmol/mL; Activity (Mus musculus [21]): 183.21 U/ml; Activity (Mus musculus [24]): 403.17 pg/mL; Activity (Mus musculus [25]): 175.14 U/ml; Activity (Mus musculus [28]): 7.01 uU/ml; Activity (Mus musculus [29]): 1050.5 ng/mL
C[C@H]1O[C@H](O[C@H]2[C@H](O)[C@@H](O)[C@@H](O[C@H]3[C@H](O)[C@@H](O)C(O)O[C@@H]3CO)O[C@@H]2CO)[C@H](O)[C@@H](O)[C@@H]1N[C@H]1C=C(CO)[C@@H](O)[C@H](O)[C@H]1O (stereo partly specified) [ACARBOSE] | 80.7 | 20.1 | 32.3 | 10.5 | 47.8 | 19.1 | 44.3 | 55.3 |  |  |  |  |  |  |  |  | 
CN(N=O)C(=O)N[C@@H](C=O)[C@@H](O)[C@H](O)[C@H](O)CO [STREPTOZOCIN] |  |  |  |  |  |  |  |  |  |  |  |  |  |  |  |  | Activity (INS1 [18]): 2.09%; Activity (INS1 [22]): 11.65%; Activity (INS1 [26]): 0.47%; Activity (INS1 [30]): 1.62%
COC(=O)C1=C(C)NC(C)=C(C(=O)OC(C)(C)C)C1c1ccc2c(c1)OCO2 (stereo unspecified) |  |  |  |  |  |  |  |  | 29.1 | 0.39 | 297.04 | Non-Toxic | <1 | Non-Toxic | Non-Toxic | Non-Toxic | 
COC(=O)C1=C(C)NC(C)=C(C(=O)OC(C)C)C1c1ccc2c(c1)OCO2 (stereo unspecified) |  |  |  |  |  |  |  |  | 28.3 | 18.09 | 244.26 | Non-Toxic | 54 | Non-Toxic | Non-Toxic | Non-Toxic | 
